Measurements as given in patent publication US20070208039A1, “Fungicidal Mixtures for Controlling Rice Pathogens” (priority 2004, published 2007).

System: Cochliobolus miyabeanus
Test: activity against brown spot of rice caused by Cochliobolus miyabeanus, protective treatment
Type: in vivo
Settings: individual active compound, rice leaves, 6 days after inoculation
Description: The active compounds, separately or jointly, were prepared as a stock solution comprising 0.25% by weight of active compound in acetone or DMSO. 1% by weight of the emulsifier Uniperol® EL (wetting agent having emulsifying and dispersing action based on ethoxylated alkylphenols) was added to this solution, and the mixture was appropriately diluted with water to the desired concentration.
Use example—activity against brown spot of rice caused by Cochliobolus miyabeanus, protective treatment Leaves of potted rice seedlings of the cultivar “Tai-Nong 67” were sprayed to runoff point with an aqueous suspension having the concentration of active compound stated below. The next day, the plants were inoculated with an aqueous spore suspension of Cochliobolus miyabeanus. The test plants were then placed in climatized chambers at 22-24° C. and 95-99% relative atmospheric humidity for six days. The extent of the development of the infection on the leaves was then determined visually.
Evaluation is carried out by determining the percentage of infected leaf areas. These percentages were converted into efficacies.
The efficacy (E) is calculated as follows using Abbot's formula: E=(1−α/β)·100 α corresponds to the fungicidal infection of the treated plants in % and β corresponds to the fungicidal infection of the untreated (control) plants in % An efficacy of 0 means that the infection level of the treated plants corresponds to that of the untreated control plants; an efficacy of 100 means that the treated plants are not infected.
The expected efficacies of mixtures of active compounds are determined using Colby's formula (Colby, R. S., Weeds, 15, 20-22, 1967) and compared with the observed efficacies.
Colby's formula: E=x+y−x·y/100 • E expected efficacy, expressed in % of the untreated control, when using the mixture of the active compounds A and B at the concentrations a and b • x efficacy, expressed in % of the untreated control, when using the active compound A at the concentration a • y efficacy, expressed in % of the untreated control, when using the active compound B at the concentration b

| Compound | Efficacy in % of the untreated control (6.25 ppm in the spray liquor) | Efficacy in % of the untreated control (25 ppm in the spray liquor) |
| --- | --- | --- |
| CC1CCN(c2c(-c3c(F)cccc3Cl)c(Cl)nc3ncnn23)CC1 [A] | 33% | – |
| C[C@H](Nc1c(-c2c(F)cc(F)cc2F)c(Cl)nc2ncnn12)C(F)(F)F [B] | 56% | – |
| CC1CCN(c2c(-c3c(F)cc(F)cc3F)c(Cl)nc3ncnn23)CC1 [I, 5-chloro-7-(4-methylpiperidin-1-yl)-6-(2,4,6-trifluorophenyl)-[1,2,4]tri-azolo[1,5-a]pyrimidine] | 56% | – |
| CC(=O)O.CCCCCCCCCCCCNC(=N)N [II (dodine), 1-dodecylguanidinium acetate] | 0% | 0% |
